Where “and” joins values, the source holds several entries; their conditions need not be identical. Equal entries are not always repeated. One block for each compound: values may come before it.
How the values were obtained:
[1] = Circular dichroism (CD) spectrum, molar ellipticity at about 270 nm as measure of base moiety orientation (syn/anti); format: physicochemical; settings: for Δ[θ]ext: phosphate buffer minus borate buffer; for change of [θ]ext / CD peak from phosphate buffer to borate buffer (borax): phosphate vs borate buffer
From the text: The molar ellipticity ([θ]max) at about 270 nm in the CD spectrum of a nucleoside reflects two factors, namely the orientation of the base moiety to the furanose moiety and the puckering of the furanose ring. It is known that the molar ellipticity at about 270 nm markedly decreases in the syn orientation as compared with the anti orientation. […]
[…] […] The rate of syn orientation induction in Urd in the presence of boric acid was smaller as compared with IPU but this can be explained by the presence of an equilibrium between the borate ester formation and the dissociation.
Specifically, CD spectra were measured with Urd, 5′-aminouridine (5′-NH2-Urd) and 5′-aminoisopropylideneuridine (5′-NH2-IPU) in phosphate buffer (pH 7.2) and with 5′-NH2-Urd in borate buffer (pH 7.2) for the investigation of uracil moiety orientations. […] This is presumably due to a syn orientation-inducing effect of hydrogen bond formation between the oxygen atom of the 2-position carbonyl group of the nucleoside base moiety and the 5′-position amino hydrogen atom. Under the measurement conditions in this case, the 5′-position amino group of 5′-NH2-Urd occurs in an ammonium ion state and presumably serves as a good hydrogen bond donor. […] This is probably due to two synergistic effects, namely the fixation of the sugar moiety to the 2′,3′-planar structure and the hydrogen bond formation between the 5′-position amino group and the 2-position carbonyl group of the base moiety.
Then, on the supposition that Urd in phosphate buffer ([θ]max value=9700) is in an ideal 100% anti orientation and 5′-NH2-IPU in phosphate buffer ([θ]max value=1200) in an ideal 100% syn orientation, the orientations of the base moiety (uracil) of uridine and uridine derivatives (5′-NH2-Urd, IPU, 5′-NH2-IPU) were evaluated under different conditions (in phosphate buffer, in borate buffer).

[2] = Association constant with boric acid from CD peak decrement against borax/boric acid concentration, curve fitting; format: binding
Procedure: However, there is no direct evidence as yet that this change in base moiety orientation is induced by borate ester bond formation. Therefore, the dependency of the change in base moiety orientation on the concentration of borax (Na2B4O7) was investigated at pH 7.2. […] The association constant of 5′-NH2-Urd with boric acid was determined by plotting the decrement in peak height against the boric acid (borax) concentration, followed by curve fitting. Supposing that borax give 4 equivalents of boric acid in aqueous solution, the association constant of 5′-NH2-Urd with boric acid was calculated at 75 M^−1.
In addition to the above-mentioned borax, boric acid (B(OH)3) was also used and the addition test was carried out in the same manner. In this case, too, decreases in peak height were observed, and the association constant was calculated at 49 M^−1. In addition, changes in orientation due to ester formation were also observed with methylboric acid and phenylboric acid.
As is evident from FIG. 8a, almost the same change as that attained by addition of 50 mM of borax at pH 7.2 was obtained at pH 8.8 only by addition of 2 mM of borax. […] The association constant 5′-NH2-Urd with boric acid was calculated at 600 M^−1, which is greater by one order than at pH 7.2.

d(A)8 = test: Melting point (Tm) of complex with oligonucleotide by UV absorbance change; format: binding; settings: phosphate pH 7.2
Procedure: (§1) Specifically, the PRNA2 (octamer) (17) was mixed with the oligonucleotide octamer shown in Table 3, the melting point (Tm) was determined by measuring the resulting change in absorbance on a UV spectrum, and the ability of the PRNA2 (octamer) (17) to hybridize with a nucleic acid (complex forming ability) was evaluated from that melting point. Further, for examining the influence of boric acids on the PRNA2 (octamer)-DNA hybrid formation and on the stability thereof, melting point measurements were carried out using the PRNA2 (octamer) (17) and d(A)8 as the binding target oligonucleotide to the PRNA2, namely a complementary compound to (T)8, with and without addition of borax (20 mM), and the melting points were compared. A control run was carried out in the same manner using (T)8 as the binding target oligonucleotide in lieu of d(A) 8.

(T)8 = test: Melting point (Tm) of complex with oligonucleotide by UV absorbance change, control run; format: binding; settings: phosphate pH 7.2
Procedure: as §1

d(A)12 = test: Melting temperature (Tm) of dodecameric chimera nucleic acid with complementary DNA; format: binding
Procedure: Using the above dodecameric chimera nucleic acid and a DNA having a complementary base sequence, the melting temperature Tm was measured in phosphate buffer allowing predominance of the anti orientation in the PRNA moiety.

5′-d(ACCAAAAA)-3′ = test: Melting temperature (Tm) of PRNA (octamer)-DNA hybrid by UV absorbance change, control experiment; format: binding; settings: for Tm: binding target 5′d(ACCAAAAA)3′
Procedure: (§2) Specifically, the PRNA (octamer NH2-UIIUUUUU-Lys-OH) was mixed with each of oligonucleotide octamers specified in Table 6, the melting temperature (Tm) was determined by measuring the resulting change in absorbance on UV spectra, and the ability of the PRNA (octamer) to hybridize with the nucleic acid (complex forming ability) was evaluated based on the resultant melting temperature. Furthermore, the effects of a borate on the PRNA (octamer)-DNA hybrid formation and the stability thereof were investigated using the PRNA (octamer) and 5′-d(AAAAACCA)-3′, a complementary compound as its binding target oligonucleotide, and measuring the melting temperatures with and without addition of borax (20 mM) to the phosphate buffer and comparing them. A control experiment was carried out in the same manner using 5′-d(ACCAAAAA)-3′ as the binding target oligonucleotide in lieu of 5′-d(AAAAACCA)-3′.

5′-d(AAAAACCA)-3′ = test: Melting temperature (Tm) of PRNA (octamer)-DNA hybrid by UV absorbance change; settings: binding target 5′d(AAAAACCA)3′
Procedure: as §2

[3] = test system: polyadenylic acid (poly(A)); test: Complex formation by continuous absorbance (260 nm) plotting, control by borax and sugars; format: binding
Procedure: Therefore, poly(Nγ-(5′-deoxy-5′-uridyl)-L-glutamine) PRNA1 (Production Example 1) was examined for its complex forming ability using polyadenylic acid (poly(A)) as its complementary strand. […] Then, borax was added to this PRNA1- and poly(A)-containing phosphate buffer solution, whereupon the absorbance (260 nm) increased in a concentration-dependent manner until a certain concentration, as shown by the plots ▪ in FIG. 20(a). Upon addition of borax in an amount about 3 times the amount of the PRNA1, the absorbance (260 nm) increased to be the original absorbance prior to addition of poly(A). […] Furthermore, this borate ester was in equilibrium with its anionic form even at pH 7.2.

[4] = phosphate buffer (pH 7.2), no borax, Urd = 100% anti, 5′-NH2-IPU = 100% syn supposed

Compound: 5′-aminoisopropylideneuridine [5′-NH2-IPU, reference compound]
[θ]max ([1]; phosphate buffer (pH 7.2)): 1200 deg cm^2dmol^−1
proportion of syn orientation of the base moiety [1, 4]: 100 % syn

Compound: NC[C@H]1O[C@@H](n2ccc(N)nc2=O)[C@H](O)[C@@H]1O [5′-NH2-Cyd, 5′-amino-5′-deoxycytidine]
[θ]max ([1]; borate buffer (pH 7.2)): 4900 deg cm^2dmol^−1
[θ]max ([1]; phosphate buffer (pH 7.2)): 8400 deg cm^2dmol^−1

Compound: Cc1cn([C@H]2C[C@H](O)[C@@H](CN)O2)c(=O)[nH]c1=O [5′-NH2-Thd [A], 5′-amino-5′-deoxythymidine, reference compound]
Molar ellipticity ([θ]ext) at about 270 nm ([1]; borate buffer (pH 7.2)): 950 deg·cm2/dmol
Molar ellipticity ([θ]ext) at about 270 nm ([1]; phosphate buffer (pH 7.2)): 600 deg·cm2/dmol
Δ[θ]ext [1]: −350

Compound: NC[C@H]1O[C@@H](n2ccc(=O)[nH]c2=O)[C@H](O)[C@@H]1O [5′-NH2-Urd, 5′-amino-5′-deoxyuridine]
association constant with boric acid ([2]; boric acid (B(OH)3) added instead of borax): 49 M⁻¹
association constant with boric acid ([2]; pH 7.2, borax added, borax supposed to give 4 equivalents of boric acid): 75 M⁻¹
association constant with boric acid ([2]; pH 8.8, borax added): 600 M⁻¹
proportion of syn orientation of the base moiety ([1]; 8 mM borax added, phosphate buffer pH 7.2): 83 % syn
proportion of syn orientation of the base moiety ([1]; 8 mM borax, pH adjusted from 7.2 to 6.2): 58 % syn
Molar ellipticity ([θ]ext) at about 270 nm ([1]; borate buffer (pH 7.2)): 1600 deg·cm2/dmol
[θ]max ([1]; borate buffer (pH 7.2)): 1600 deg cm^2dmol^−1
proportion of syn orientation of the base moiety ([1]; borate buffer (pH 7.2)): 95 % syn
change of CD peak at about 270 nm / orientation upon addition of borax ([1]; pH 6.0): almost no peak decreases were observed
change of CD peak at about 270 nm / orientation upon addition of borax ([1]; pH 8.8): syn orientation is induced more effectively at pH 8.8
Molar ellipticity ([θ]ext) at about 270 nm ([1]; phosphate buffer (pH 7.2)): 5100 deg·cm2/dmol
[θ]max ([1]; phosphate buffer (pH 7.2)): 5100 deg cm^2dmol^−1
proportion of syn orientation of the base moiety [1, 4]: 55 % syn and 54 % syn
Δ[θ]ext [1]: 3500

Compound: CC(C)(C)OC(=O)N[C@@H](CCC(=O)NC[C@H]1O[C@@H](n2ccc(=O)[nH]c2=O)[C@H](O)[C@@H]1O)C(=O)O [Boc-isoGln(5′U)-OH, N^α-t-butoxycarbonyl-N^5-(5′-deoxy-5′-uridyl)-L-isoglutamine]
proportion of syn orientation of the base moiety ([1]; borate buffer (pH 7.2)): 56 % syn

Compound: Nc1ccn([C@@H]2O[C@H](CO)[C@@H](O)[C@H]2O)c(=O)n1 [Cytidine (Cyd), Cytidine, reference compound]
[θ]max ([1]; borate buffer (pH 7.2)): 12200 deg cm^2dmol^−1
[θ]max ([1]; phosphate buffer (pH 7.2)): 14200 deg cm^2dmol^−1

Compound: Boc-AEG(5′U)-OH
proportion of syn orientation of the base moiety ([1]; 5.5 mM borax added, phosphate buffer pH 7.2): 76 % syn
proportion of syn orientation of the base moiety ([1]; 5.5 mM borax, pH adjusted from 7.2 to 6.2): 41 % syn
proportion of syn orientation of the base moiety ([1]; borate buffer (pH 7.2)): 64 % syn
change of CD peak at about 270 nm / orientation upon addition of borax ([1]; pH 6.0): almost no decrease in the relevant peak was observed
change of CD peak at about 270 nm / orientation upon addition of borax ([1]; pH 8.8): very efficient increase in syn orientation proportion
proportion of syn orientation of the base moiety [1, 4]: 39 % syn

Compound: Boc-isoGln(5′I)-isoGln(5′U)-OH [I-U]
Molar ellipticity ([θ]ext) at about 270 nm ([1]; borate buffer (pH 7.2)): 1400 deg·cm2/dmol
Molar ellipticity ([θ]ext) at about 270 nm ([1]; phosphate buffer (pH 7.2)): 4800 deg·cm2/dmol
Δ[θ]ext [1]: 3400

Compound: HCl.(isoGln(5′U))8-Lys-OH [PRNA2 (17)]
Tm (d(A)8; binding target d(A)8, 20 mM borax): <0 °C
Tm (d(A)8; binding target d(A)8, 20 mM borax, listed as PRNA2 (octamer)): below 0 °C
Tm (d(A)8; binding target d(A)8, no additive): 52.8 °C
Tm ((T)8; binding target (T)8, 20 mM borax): <0 °C
Tm ((T)8; binding target (T)8, no additive): <0 °C

Compound: NH2-UUUUUUUUTTTT-3′: chimeric molecule dodecamer, PRNA(Urd) octamer amide-bonded to thymidine tetramer
change of [θ]ext / CD peak from phosphate buffer to borate buffer (borax) [1]: [θ]ext decreased
Tm (d(A)12; binding target d(A)12, 20 mM borax): <0 °C
Tm (d(A)12; binding target d(A)12, 20 mM borax, listed as (U)8DNA(T)4): < 0 °C
Tm (d(A)12; binding target d(A)12, no additive, phosphate buffer pH 7.2): 42.5 °C
Tm gain of the complex over the DNA-DNA complex (d(A)12; no additive): 19.3 °C

Compound: Poly(N^γ-(5′-deoxy-5′-uridyl)-L-glutamine) [PRNA1]
amount of xylose giving perfect 1:1 complex formation ([3]; borax 6 times the amount of PRNA1): about 20 times that of the PRNA1
absorbance at 260 nm after addition of D(+)-xylose ([3]; borax 6 times the amount of PRNA1, decrease from 1.03): 0.88
effect of D(+)-glucose in lieu of D(+)-xylose ([3]; borax-containing phosphate buffer with poly(A)): the complex is formed
absorbance at 260 nm after addition of poly(A) ([3]; borax-free phosphate buffer pH 7.2, decrease from 1): 0.88
amount of borax restoring the original absorbance (complete dissociation of complex) ([3]; phosphate buffer with PRNA1 and poly(A)): about 3 times the amount of the PRNA1

Further lines, with some results ahead:

[θ]max ([1]; borate buffer (pH 7.2)): 7400 deg cm^2dmol^−1
proportion of syn orientation of the base moiety ([1]; borate buffer (pH 7.2)): 27 % syn
[θ]max ([1]; phosphate buffer (pH 7.2)): 9700 deg cm^2dmol^−1
proportion of anti orientation of the base moiety ([1]; phosphate buffer (pH 7.2)): 100 % anti
Compound: O=c1ccn([C@@H]2O[C@H](CO)[C@@H](O)[C@H]2O)c(=O)[nH]1 [Urd, uridine, reference compound]

Molar ellipticity ([θ]ext) at about 270 nm ([1]; phosphate buffer (pH 7.2)): 6600 deg·cm2/dmol
Δ[θ]ext [1]: 3300
Compound: Boc-isoGln(5′U)-isoGln(5′I)-OH [U-I]

change of [θ]ext / CD peak from phosphate buffer to borate buffer (borax) [1]: [θ]ext decreases
Compound: Boc-isoGln(5′U)-isoGln(5′I)-isoGln(5′U)-OH [U-I-U]

Molar ellipticity ([θ]ext) at about 270 nm ([1]; borate buffer (pH 7.2)): 1250 deg·cm2/dmol
Molar ellipticity ([θ]ext) at about 270 nm ([1]; phosphate buffer (pH 7.2)): 12300 deg·cm2/dmol
Δ[θ]ext [1]: 11050
Compound: Boc-isoGln(5′U)-isoGln(5′U)-OH [U-U]

change of [θ]ext / CD peak from phosphate buffer to borate buffer (borax) [1]: [θ]ext decreases
Compound: Boc-isoGln(5′U)-isoGln(5′U)-isoGln(5′U)-OH [U-U-U]

change of [θ]ext / CD peak from phosphate buffer to borate buffer (borax) [1]: marked decrease
Compound: NH2-isoGln(5′U)-isoGln(5′I)-isoGln(5′I)-isoGln(5′U)-isoGln(5′U)-isoGln(5′U)-isoGln(5′U)-isoGln(5′U)-Lys-OH [NH2UIIUUUUU-Lys-OH]
Tm (5′-d(ACCAAAAA)-3′; 20 mM borax): <0 °C
Tm (5′-d(ACCAAAAA)-3′; no additive): 6.2 °C
lowering of Tm with 5′-d(ACCAAAAA)-3′ in lieu of 5′-d(AAAAACCA)-3′ (5′-d(ACCAAAAA)-3′; no additive): 1.6 °C
Tm (5′-d(AAAAACCA)-3′; 20 mM borax): <0 °C
Tm (5′-d(AAAAACCA)-3′; 20 mM borax, listed as PRNA (octamer)): lower than 0 °C
Tm (5′-d(AAAAACCA)-3′; no additive, 1/30 M phosphate buffer): 7.8 °C

— patent US7442788B2, “Antisense molecules and method of controlling expression of gene function by using the same” (Japan Science and Technology Corporation, priority 2001, dated 2008)
